These results are taken from US20200352912A1, “ANTIMICROBIAL COMPOSITIONS AND METHODS OF USING THE SAME” (The Board Of Supervisors Of Louisiana State University And …, priority 2018, published 2020).

One test deals with FP (Homo sapiens, UniProt P43088). The settings on record: cited from earlier work.
In the next test the test system is MRSA. Put plainly: checkerboard broth microdilution synergy test with oxacillin. Format: cell-based, Staphylococcus aureus. The settings on record: combination with oxacillin. Here is the method: Due to the newfound antimicrobial activity of L-161, 982 against S. aureus, the checkerboard method (14) with the broth microdilution method, was used to test for synergy with oxacillin, a drug similar to methicillin used more commonly in the clinical setting. Synergy was determined using the fractional inhibitory concentration index (FICI) method (14, 15). With this method, the MIC of the antibiotic compound in combination is divided by the MIC of the compound alone, giving the fractional contribution of each drug component in combination. Quotients for all compounds in combination are summed and drug interactions scored using the formula:
FICI=((MIC AcombA+B)/MICA)+((MIC BcombA+B)/MICB)
The stock solutions and serial twofold dilutions of oxacillin ranged from 8× the MIC to 32× below the MIC and that of L-161, 982 ranged from 8× the MIC to 2000× below the MIC. Oxacillin was serially diluted along the ordinate, while L-161, 982 was diluted along the abscissa. The resulting checkerboard contained each combination of two drugs, with wells that contain the highest concentration of each antibiotic at opposite corners. Each microtiter well was inoculated with 1×10^5 CFU. The plates were incubated at 37° C. for 24 h and the OD600 measured using a microplate spectrophotometer. […]

The next test relates to K. pneumoniae. Put plainly: spectrum of activity, bacterial growth. Format: cell-based. The settings on record: 50 μg/ml, 6 h. Here is the method:
(§1) Bacterial growth was monitored for 6 h in medium alone or supplemented with 50 μg/ml of L-161, 982. Data shown is representative of three independent experiments.
(§2) Strains and growth conditions. The methicillin-resistant S. aureus strain NRS383 used in all experiments was obtained from the Network on Antimicrobial Resistance in S. aureus (NARSA) data bank. NRS383 is positive for the toxic shock syndrome toxin (tst) and 6-toxin genes. SJ-MRSA 6 and SJ-SA5 are methicillin-resistant (MRSA) and methicillin-sensitive (MSSA) clinical S. aureus strains respectively isolated from a patient's catheter. Other bacterial species used in this study include Escherichia coli (ATCC 25922, clinical isolate), S. epidermidis (ATCC 12228), Klebsiella pneumonia (ATCC 43816), Enterococcus faecalis (ATCC 51299, clinical isolate), and Streptococcus mutans (UA159, 12). S. mutans strain was maintained in brain heart infusion (BHI) broth while the other bacterial species were maintained in Luria-Bertani broth. Frozen stocks were obtained at −80° C. and streaked onto agar plates at 37° C. prior to use. A single colony was transferred to 10 ml of culture broth and shaken at 37° C. overnight. On the following day, the overnight culture was diluted 1:100 in fresh growth medium and shaken at 37° C. for 3 h to obtain cells in mid-log growth phase. S. mutans cultures were grown without agitation in the presence of 5% CO2.
(§3) The spectrum of activity of L-161, 982 was investigated by testing several Gram-positive and Gram-negative bacteria.

The next test has as its system S. epidermidis. Put plainly: spectrum of activity, bacterial growth. Format: cell-based. The settings on record: 50 μg/ml, 6 h. On the procedure: as §1, §2, §3
Another test deals with Streptococcus mutans. Put plainly: spectrum of activity, bacterial growth. Format: cell-based. To be noted: 50 μg/ml, 6 h. On the procedure:
as §1, §2, §3

For a further test, the system named is E. faecium. Put plainly: spectrum of activity, bacterial growth. Format: cell-based. To be noted: 50 μg/ml, 6 h. Here is the method: as §1, §2, §3
A further test has as its target EP2 (Homo sapiens, UniProt P43116). The settings on record: cited from earlier work.
The target in another test is EP3 (Homo sapiens, UniProt P43115). To be noted: cited from earlier work.
Test [1] has as its system C. albicans and S. aureus. Put plainly: mouse C. albicans-S. aureus polymicrobial intra-abdominal infection. Format: in vivo, mice. To be noted: 10 mg/kg. On the procedure: Effect of inhibition of EP4 receptor signaling on survival. Mice received either vehicle or EP4 receptor antagonist at a dose of 10 mg/kg by i.p. injection as indicated in Materials and Methods. Mortality was assessed using Kaplan Meier test (***P<0.001; n=20/group) compared to control groups. Data shown are representative of three replicate experiments.
The mouse peritonitis/intra-abdominal model was performed as previously described (8). In brief, for MRSA peritonitis, mice were injected intraperitoneally (i.p.) with 4×10^6 CFU or 5×10^6 CFU or 2×10^7 CFU of S. aureus in 0.2 ml of PBS containing 3% hog gastric mucin type III (Sigma Aldrich). Mice injected i.p. with 0.2 ml of mucin/PBS served as a negative infection control. For the intra-abdominal infection with C. albicans and S. aureus, mice were injected i.p. with 7×10^6 CFU of C. albicans and 8×10^7 CFU of S. aureus (8.7×10^7 CFU total) in 0.2 ml of PBS. After inoculation, mice were observed over 10 days for signs of morbidity (hunched posture, inactivity, lethargy, and ruffled fur) and mortality. […] In the MRSA peritonitis experiments, mice were sacrificed at 24 or 48 h post-inoculation to assess microbial burden. Peritoneal cavities were lavaged by injection of 2 ml of sterile PBS followed by gentle massaging of the peritoneal cavity. Peritoneal lavage fluid then was removed using a pipette inserted into a small incision in the abdominal cavity. Spleens were removed, weighed, and mechanically homogenized prior to CFU analysis. Microbial burdens in the peritoneal lavage fluid and spleen were enumerated as described above.
Each inhibitor was prepared fresh as a concentrated stock (20-25 mg/ml) in DMSO and diluted to a working concentration of […] in sterile PBS (final DMSO concentration, 2.3%). A sham treatment containing only 2.3% DMSO in PBS was also prepared. For the MRSA peritonitis study, the EP4 receptor antagonist was administered 2 h after S. aureus inoculation and once daily thereafter until day 4 post inoculation. For the IAI co-infection study, COX inhibitor or vehicle control was administered 4 h prior to and 4 and 8 h after inoculation with C. albicans and S. aureus while the EP receptor antagonists were administered daily starting 1 day prior to and 5 days after infection. All other procedures were performed as described above. Control groups received the vehicle at the same dose interval.
In a final set of experiments, we evaluated the ability of L-161, 982 to reduce lethality in co-infected mice. Mice co-inoculated with the standard 7×106 C. albicans CFU and 8×107 S. aureus CFU (8.7×10^7 CFU total) were treated with L-161, 982 (10 mg/kg) 2 h post infection and once daily afterwards until day 5. […]

Chain of EP2 (P43116 whole entry): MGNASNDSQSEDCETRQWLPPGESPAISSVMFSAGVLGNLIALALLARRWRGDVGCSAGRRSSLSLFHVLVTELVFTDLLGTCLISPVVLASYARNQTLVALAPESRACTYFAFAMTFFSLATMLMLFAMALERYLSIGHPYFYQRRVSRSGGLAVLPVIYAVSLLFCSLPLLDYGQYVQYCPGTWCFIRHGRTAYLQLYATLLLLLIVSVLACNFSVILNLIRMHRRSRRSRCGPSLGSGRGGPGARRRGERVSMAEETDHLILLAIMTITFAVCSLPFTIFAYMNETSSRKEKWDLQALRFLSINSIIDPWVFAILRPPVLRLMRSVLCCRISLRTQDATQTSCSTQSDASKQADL
Chain of EP3 (P43115 whole entry): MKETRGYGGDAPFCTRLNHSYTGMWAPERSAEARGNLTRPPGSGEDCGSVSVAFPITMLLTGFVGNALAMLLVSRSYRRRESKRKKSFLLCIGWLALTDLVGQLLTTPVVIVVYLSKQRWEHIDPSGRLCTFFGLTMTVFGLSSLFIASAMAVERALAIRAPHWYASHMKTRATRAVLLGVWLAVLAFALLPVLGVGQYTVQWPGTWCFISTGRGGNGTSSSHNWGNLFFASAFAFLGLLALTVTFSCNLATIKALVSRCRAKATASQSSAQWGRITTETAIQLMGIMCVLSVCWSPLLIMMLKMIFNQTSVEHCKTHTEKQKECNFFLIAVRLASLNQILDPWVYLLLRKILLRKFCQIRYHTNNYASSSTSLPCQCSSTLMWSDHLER
Chain of FP (P43088 whole entry): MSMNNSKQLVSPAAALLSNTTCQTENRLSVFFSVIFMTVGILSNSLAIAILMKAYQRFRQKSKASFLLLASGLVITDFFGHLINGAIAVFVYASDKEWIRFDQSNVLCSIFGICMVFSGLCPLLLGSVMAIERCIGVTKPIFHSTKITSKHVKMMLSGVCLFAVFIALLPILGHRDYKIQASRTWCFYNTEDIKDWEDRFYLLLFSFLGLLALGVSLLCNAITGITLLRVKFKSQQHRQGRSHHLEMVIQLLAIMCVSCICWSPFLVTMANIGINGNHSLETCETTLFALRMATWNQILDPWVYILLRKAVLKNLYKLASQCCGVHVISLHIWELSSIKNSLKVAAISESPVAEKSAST

For `CCCCc1nn(-c2ccccc2C(F)(F)F)c(=O)n1Cc1ccc(-c2ccccc2S(=O)(=O)NC(=O)c2sccc2C)cc1` [L-161, 982, N-[[4′-[[3-Butyl-1,5-dihydro-5-oxo-1-[2-(trifluoromethyl)phenyl]-4H-1,2,4-triazol-4-yl]methyl][1,1′-biphenyl]-2-yl]sulfonyl]-3-methyl-2-thiophenecarboxamide], the Ki was 5.6 µM at FP, 23 µM at EP2 and 1.9 µM on EP3. Besides, in the test on MRSA, the “fractional inhibitory concentration (FIC) index” value is 0.563. The growth inhibitory activity entry in the test with K. pneumoniae was “No inhibitory effects”; in the test with S. epidermidis, “restricted to Gram-positive bacteria that included S. epidermidis and Streptococcus mutans”; in the test with Streptococcus mutans it was “restricted to Gram-positive bacteria that included S. epidermidis and Streptococcus mutans”; in the test on E. faecium, “No inhibitory effects”. Also, the “survival enhanced by” value in test [1] is listed as 40%. The compound further gave a survival in [1] (vehicle control 10) of 50%.
